In brackets after ≈: the same amount, converted by molar mass.
Key:
Assay type in all cases: cell-based
[1] = tested on: MCF-7 estrogen receptor-positive breast cancer cells; experiment: […]-GLO luminescent cell viability assay, MCF-7; conditions: Homo sapiens, MCF7, MCF-7 cells, 5000 cells/well, 72 h at 37° C.
Method: (§1) All the compounds are tested in three cell lines. Different concentration of compounds, ranging from about 0.01 nM to about 100,000 nM were delivered to 5×10^3 cells per well, which were then incubated for three days at 37° C., followed by CTG assay.
(§2) In this assay, the number of viable cells in culture is determined based on the quantification of ATP present, which signals the presence of metabolically active cells. Damaged cells are not detected as the ATP leaked from these cells is quickly consumed by ATPases that are also released upon damage). The amount of ATP is determined using a system based on luciferase and D-luciferin resulting in light generation.
(§3) The cell lines were plated in 13, 96 well plates at a density of 5000 cells/well in total volumes of 50 μL in phenol-red free medium and incubated for overnight.
(§4) 25 μL of 40 nM estradiol should be added to all appropriate wells on the plate. […] 25 μL of stocks (containing the compounds to be tested, DMSO and phenol-red free medium) were added to cells and medium already on plate. 50 μL of medium were added to media wells, and 50 μL of mix (contain 32 mL DMSO+768 mL phenol-red free medium) to all vehicle control wells.
(§5) Luminescence results were read on TriLux Luminometer. The luminescent signal is proportional to the number of active cells present in culture. […] As a consequence, the number of metabolically active cells can be directly derived from the luminescent signal using a specific calibration curve. Data were expressed as percentage of untreated control (i.e. treatment value-blank/vehicle value blank), mean±SE for three replications.

Ishikawa cells = experiment: […]-GLO luminescent cell viability assay, Ishikawa; conditions: Homo sapiens, 5000 cells/well, 72 h at 37° C.
Method: as §1, §2, §3, §4, §5

[2] = tested on: MDA-MB-231 estrogen receptor-negative breast cancer cell line; experiment: […]-GLO luminescent cell viability assay, MDA-MB-231; conditions: Homo sapiens, MDA-MB-231 cells, 5000 cells/well, 72 h at 37° C.
Method: as §1, §2, §3, §4, §5

Row | SMILES | IC50 [1] | IC50 (Ishikawa cells) | IC50 [2]
1 | O=C(NN1CCc2ccccc2C1)c1ccccc1 [Redda-GM-3-15, N-(3,4-dihydroisoquinolin-2-(1H)-yl)benzamide] | 0.63 µg/mL (≈ 2.5 µM) | 0.23 µg/mL (≈ 0.912 µM) | 0.74 µg/mL (≈ 2.93 µM)
2 | Cc1ccc(C(=O)NN2CCc3ccccc3C2)cc1 [Redda-GM-3-19] | 0.7 µg/mL (≈ 2.63 µM) | 0.44 µg/mL (≈ 1.65 µM) | 1.02 µg/mL (≈ 3.83 µM)
3 | O=C(NN1CCc2ccccc2C1)c1ccc(Cl)cc1 [Redda-GM-3-18, 4-chloro-N-(3,4-dihydroisoquinolin-2(1H)-yl)bemamide] | 0.71 µg/mL (≈ 2.48 µM) | 0.61 µg/mL (≈ 2.13 µM) | 0.8 µg/mL (≈ 2.79 µM)
4 | COc1ccc(C(=O)NN2CCc3ccccc3C2)cc1 [Redda-GM-3-16, N-(3,4-dihydroisoquinolin-2(1H)-yl)-4-methoxybenzamide] | 0.93 µg/mL (≈ 3.29 µM) | 0.21 µg/mL (≈ 0.744 µM) | 0.78 µg/mL (≈ 2.76 µM)
5 | COc1ccc(S(=O)(=O)NN2CCc3ccccc3C2)cc1 [Redda-CM-3-13, N-(3,4-dihydroisoquinolin-2(1H)-yl)-4-methoxybenzenesulfonamide] | 1.27 µg/mL (≈ 3.99 µM) | 0.45 µg/mL (≈ 1.41 µM) | 0.76 µg/mL (≈ 2.39 µM)

Reference: US8546426B2, “N-aminotetrahydroisoquinolines as anti-cancer agents” (Florida A&M University Board of Trustees, priority 2011, dated 2013)
